PMC11277489, “Novel Piperazine Derivatives of Vindoline as Anticancer Agents” (International Journal of Molecular Sciences, 2024)

Key:
Format in all cases: cell-based
NCI-H460 = test: NCI60 five-dose screen, Non-small Cell Lung Cancer; conditions: Homo sapiens; NCI-H460, Non-small Cell Lung Cancer; five-dose screen; read-out: GI50
UO-31 = test: NCI60 five-dose screen, Renal Cancer; conditions: Homo sapiens; UO-31, Renal Cancer; five-dose screen; read-out: GI50
SR = test: NCI60 five-dose screen, Leukemia; conditions: Homo sapiens, Leukemia, five-dose screen, read-out: GI50
RXF 393 = test: NCI60 five-dose screen, Renal Cancer; conditions: Homo sapiens, RXF 393, Renal Cancer
HT29 = test: NCI60 five-dose screen, Colon Cancer; conditions: Homo sapiens, HT-29; HT29, Colon Cancer; five-dose screen; read-out: GI50
NCI-H226 = test: NCI60 five-dose screen, Non-small Cell Lung Cancer; conditions: Homo sapiens; NCI-H226, Non-small Cell Lung Cancer; five-dose screen; read-out: GI50
BT-549 = test: NCI60 five-dose screen, Breast Cancer; conditions: Homo sapiens; BT-549, Breast Cancer; five-dose screen; read-out: GI50
PC-3 = test: NCI60 five-dose screen, Prostate Cancer; conditions: Homo sapiens; PC-3, Prostate Cancer; five-dose screen; read-out: GI50
786–0 = test: NCI60 five-dose screen, Renal Cancer; conditions: Homo sapiens; 786–0, Renal Cancer; five-dose screen; read-out: GI50
K-562 = test: NCI60 five-dose screen, Leukemia; conditions: Homo sapiens, K562; K-562, Leukemia; five-dose screen; read-out: GI50
CCRF-CEM = test: NCI60 five-dose screen, Leukemia; conditions: Homo sapiens, Leukemia, five-dose screen, read-out: GI50
SW-620 = test: NCI60 five-dose screen, Colon Cancer; conditions: Homo sapiens; SW-620, Colon Cancer; five-dose screen; read-out: GI50
SF-268 = test: NCI60 five-dose screen, CNS Cancer; conditions: Homo sapiens; SF-268, CNS Cancer; five-dose screen; read-out: GI50
TK-10 = test: NCI60 five-dose screen, Renal Cancer; conditions: Homo sapiens; TK-10, Renal Cancer; five-dose screen; read-out: GI50
MALME-3M = test: NCI60 five-dose screen, Melanoma; conditions: Homo sapiens; MALME-3M, Melanoma; five-dose screen; read-out: GI50
MOLT-4 = test: NCI60 five-dose screen, Leukemia; conditions: Homo sapiens; MOLT-4, Leukemia; five-dose screen; read-out: GI50
SK-MEL-28 = test: NCI60 five-dose screen, Melanoma; conditions: Homo sapiens; SK-MEL-28, Melanoma; five-dose screen; read-out: GI50
SF-539 = test: NCI60 five-dose screen, CNS Cancer; conditions: Homo sapiens; SF-539, CNS Cancer; five-dose screen; read-out: GI50
SF-295 = test: NCI60 five-dose screen, CNS Cancer; conditions: Homo sapiens; SF-295, CNS Cancer; five-dose screen; read-out: GI50
NCI/ADR-RES = test: NCI60 five-dose screen, Ovarian Cancer; conditions: Homo sapiens, Ovarian Cancer, five-dose screen, read-out: GI50
OVCAR-5 = test: NCI60 five-dose screen, Ovarian Cancer; conditions: Homo sapiens; OVCAR-5, Ovarian Cancer; five-dose screen; read-out: GI50
IGROV1 = test: NCI60 five-dose screen, Ovarian Cancer; conditions: Homo sapiens, IGROV-1; IGROV1, Ovarian Cancer; five-dose screen; read-out: GI50
A549/ATCC = test: NCI60 five-dose screen, Non-small Cell Lung Cancer; conditions: Homo sapiens; A549/ATCC, Non-small Cell Lung Cancer; five-dose screen; read-out: GI50
NCI-H522 = test: NCI60 five-dose screen, Non-small Cell Lung Cancer; conditions: Homo sapiens; NCI-H522, Non-small Cell Lung Cancer; five-dose screen; read-out: GI50
SK-MEL-2 = test: NCI60 five-dose screen, Melanoma; conditions: Homo sapiens; SK-MEL-2, Melanoma; five-dose screen; read-out: GI50
MDA-MB-435 = test: NCI60 five-dose screen, Melanoma; conditions: Homo sapiens; MDA-MB-435, Melanoma; five-dose screen; read-out: GI50
HS 578T = test: NCI60 five-dose screen, Breast Cancer; conditions: Homo sapiens; HS 578T, Breast Cancer; five-dose screen; read-out: GI50
HCT-116 = test: NCI60 five-dose screen, Colon Cancer; conditions: Homo sapiens; HCT-116, Colon Cancer; five-dose screen; read-out: GI50
T-47D = test: NCI60 five-dose screen, Breast Cancer; conditions: Homo sapiens, T47D; T-47D, Breast Cancer; five-dose screen; read-out: GI50
HOP-62 = test: NCI60 five-dose screen, Non-small Cell Lung Cancer; conditions: Homo sapiens; HOP-62, Non-small Cell Lung Cancer; five-dose screen; read-out: GI50
NCI-H23 = test: NCI60 five-dose screen, Non-small Cell Lung Cancer; conditions: Homo sapiens; NCI-H23, Non-small Cell Lung Cancer; five-dose screen; read-out: GI50
HCC-2998 = test: NCI60 five-dose screen, Colon Cancer; conditions: Homo sapiens; HCC-2998, Colon Cancer; five-dose screen; read-out: GI50
EKVX = test: NCI60 five-dose screen, Non-small Cell Lung Cancer; conditions: Homo sapiens, Non-small Cell Lung Cancer, five-dose screen, read-out: GI50
A498 = test: NCI60 five-dose screen, Renal Cancer; conditions: Homo sapiens; A498, Renal Cancer; five-dose screen; read-out: GI50
SNB-75 = test: NCI60 five-dose screen, CNS Cancer; conditions: Homo sapiens; SNB-75, CNS Cancer; five-dose screen; read-out: GI50
HL-60(TB) = test: NCI60 five-dose screen, Leukemia; conditions: Homo sapiens; HL-60(TB), Leukemia; five-dose screen; read-out: GI50
SK-MEL-5 = test: NCI60 five-dose screen, Melanoma; conditions: Homo sapiens; SK-MEL-5, Melanoma; five-dose screen; read-out: GI50

CC[C@]12C=CCN3CC[C@@]4(c5ccc(OC)cc5N(C)[C@H]4[C@@](O)(C(=O)OC)[C@@H]1OC(=O)CCCN1CCN(Cc4ccc(F)cc4)CC1)[C@@H]32 [Compound 24]
GI50 (NCI-H460): 8.51 µM
GI50 (UO-31): 3.09 µM
GI50 (SR): 3.47 µM
GI50 (RXF 393): 1 µM
GI50 (HT29): 3.8 µM
GI50 (NCI-H226): 10.5 µM
GI50 (BT-549): 7.24 µM
GI50 (PC-3): 4.17 µM
GI50 (786–0): 6.31 µM
GI50 (K-562): 2.4 µM
GI50 (CCRF-CEM): 4.07 µM
GI50 (SW-620): 13.5 µM
GI50 (SF-268): 5.25 µM
GI50 (TK-10): 4.9 µM
GI50 (MALME-3M): 2.29 µM
GI50 (MOLT-4): 1.74 µM
GI50 (SK-MEL-28): 4.68 µM
GI50 (SF-539): 10.5 µM
GI50 (SF-295): 12.6 µM
GI50 (NCI/ADR-RES): 11.8 µM
GI50 (OVCAR-5): 13.8 µM
GI50 (IGROV1): 2.51 µM
GI50 (A549/ATCC): 10.2 µM
GI50 (NCI-H522): 13.8 µM
GI50 (SK-MEL-2): 15.1 µM
GI50 (MDA-MB-435): 5.5 µM
GI50 (HS 578T): 4.07 µM
GI50 (HCT-116): 5.62 µM
GI50 (T-47D): 5.62 µM
GI50 (HOP-62): 10.2 µM
GI50 (NCI-H23): 13.2 µM
GI50 (HCC-2998): 2.19 µM
GI50 (EKVX): 12 µM
GI50 (A498): 12.9 µM
GI50 (SNB-75): 1.12 µM
GI50 (HL-60(TB)): 3.31 µM
GI50 (SK-MEL-5): 1.66 µM

CC[C@]12C=CCN3CC[C@@]4(c5ccc(OC)cc5N(C)[C@H]4[C@@](O)(C(=O)OC)[C@@H]1OC(=O)CCC(=O)N1CCN(Cc4ccc(C(F)(F)F)cc4)CC1)[C@@H]32 [Compound 29]
GI50 (NCI-H460): 10.5 µM
GI50 (UO-31): 6.92 µM
GI50 (SR): 13.8 µM
GI50 (RXF 393): 4.47 µM
GI50 (HT29): 6.76 µM
GI50 (NCI-H226): 9.77 µM
GI50 (BT-549): 15.1 µM
GI50 (PC-3): 3.39 µM
GI50 (786–0): 12.3 µM
GI50 (K-562): 3.8 µM
GI50 (CCRF-CEM): 11.8 µM
GI50 (SW-620): 11.5 µM
GI50 (SF-268): 5.75 µM
GI50 (TK-10): 12.3 µM
GI50 (MALME-3M): 11.5 µM
GI50 (MOLT-4): 5.25 µM
GI50 (SK-MEL-28): 11.8 µM
GI50 (SF-539): 12.9 µM
GI50 (SF-295): 9.33 µM
GI50 (NCI/ADR-RES): 12.3 µM
GI50 (OVCAR-5): 14.5 µM
GI50 (IGROV1): 10.7 µM
GI50 (A549/ATCC): 8.32 µM
GI50 (NCI-H522): 12.6 µM
GI50 (SK-MEL-2): 2.82 µM
GI50 (MDA-MB-435): 10.5 µM
GI50 (HS 578T): 10.2 µM
GI50 (HCT-116): 7.76 µM
GI50 (T-47D): 5.25 µM
GI50 (HOP-62): 14.1 µM
GI50 (NCI-H23): 12 µM
GI50 (HCC-2998): 12.9 µM
GI50 (EKVX): 7.59 µM
GI50 (A498): 12.3 µM
GI50 (SNB-75): 15.5 µM
GI50 (HL-60(TB)): 12.9 µM
GI50 (SK-MEL-5): 3.89 µM
